Several values for one entry are separate records, joined by “and”; a condition that tells them apart may be missing. Identical values can stand only once. Entries after “also recorded” stand apart in the source; their conditions may differ.
Assays:
Format in all cases: cell-based, human
[1] = test system: HMC-1 cells; experiment: Histamine release in PMACI-treated HMC-1 cells (ELISA); details: for Histamine release: mean ± S.E.
Method: (§1) Cell culture: Human Mast Cell Line (HMC-1) cells (ATCC, Manassas, Va., USA) were maintained in IMDM (Iscove's Modified Dulbecco's Media) medium (Thermo Fisher Scientific) containing 10% fetal bovine serum (FBS; Hyclone, GE Healthcare Life Sciences) and 1% penicillin-streptomycin (Sigma-Aldrich, St. Louis, Mo., USA) in a 37° C. humidified incubator with 5% CO2. The medium was changed every 2-3 days.
(§2) HMC-1 cell treatment: HMC-1 cells were seeded in 12-well plates at a density of 7×10^5 cells per well and exposed to Tβ4 (1, 1.5, 3, and 6 μg/mL) for 1 hour before treatment with phorbol 12-myristate 13-acetate plus A23187 (PMACI; 30 nM of PMA plus 1.5 μM of A23187) to induce degranulation (activation) of mast cells and incubated at 37° C. After 2.5 hours, the medium was centrifuged (Hanil, UNION 32R PLUS) for 20 minutes at 1000×g. The supernate was transferred to another tube.
Allergic reaction factors: Histamine (HIS), Leukotrien B4 (LTB4), and Prostaglandin E2 (PGE2) amounts were evaluated to determine the effects of the disclosed composition on the release of allergic reaction factors. Histamine levels were measured using the HIS (Histamine) ELISA kit (Elabscience, Huston, Tex., USA) on the supernate of the culture medium. 50 μL of the sample was added to 96-plate wells, then 50 μL of Biotinylated Detection Ab working solution was added and incubated at 37° C. for 45 minutes. 100 μL of HRP Conjugate working solution was added and incubated at 37° C. for 30 minutes. 90 μL of Substrate reagent was added and incubated at 37° C. for 15 minutes. Washing was performed between each step. 50 μL of stop solution was added without washing. Absorbance was measured at 450 nm with a spectrophotometer (Biotek, PowerWave XS2, Winooski, Vt., USA).

[2] = test system: HMC-1 cells; experiment: Prostaglandin E2 (PGE2) release in PMACI-treated HMC-1 cells (ELISA); details: for PGE2 release: mean ± S.E.
Method: as §1, §2
The prostaglandin E2 (PGE2) amount was measured using a human PGE2 ELISA kit (Abeam, Cambridge, Mass.) on the supernate of the culture medium. 100 μL of the sample was added to 96-plate wells, then 50 μL of PGE2 Alkaline Phosphatase Conjugate was added. 50 ul of PGE2 Antibody was added and incubated on a shaker at room temperature for 45 minutes. 200 μL of pNPP substrate solution was added and incubated at 37° C. for 30 minutes. 90 μL of Substrate reagent was added and incubated at room temperature for 45 minutes. Washing was performed between each step. 50 μL of stop solution was added without washing. Absorbance was measured at 405 nm with a spectrophotometer (Biotek, PowerWave XS2, Winooski, Vt., USA).

[3] = test system: HMC-1 cells; experiment: IL-13 release in PMACI-treated HMC-1 cells (ELISA); details: for IL-13 release: PMACI-treated HMC-1 cells, mean ± S.E.
Method: as §1, §2
(§3) Inflammatory cytokines: IL-4, IL-13, and TNF-α amounts were evaluated to determine the effects of the disclosed composition on the release of inflammatory cytokines. IL-4 and IL-13 amounts were measured using Human IL-4 (ab100570) and IL-13 (ab100553) ELISA kit (Abeam, Cambridge, Mass.) on the supernate of the culture medium. 100 μL of the sample was added to 96-plate wells, then 100 μL of Biotinylated IL-4 and IL-13 detection antibody were added and incubated at room temperature for 1 hour. 100 μL of HRP-streptavidin solution was added and incubated at room temperature for 45 minutes. 100 μL of TMB one step substrate reagent was added and incubated at room temperature for 30 minutes. Washing was performed between each step and incubated on a shaker. Finally, 50 μL of stop solution was added without washing. Absorbance was measured at 450 nm with a spectrophotometer (Biotek, PowerWave XS2, Winooski, Vt., USA).

[4] = test system: HMC-1 cells; experiment: TNF-α release in PMACI-treated HMC-1 cells (ELISA); details: for TNF-α release: PMACI-treated HMC-1 cells, mean ± S.E.
Method: as §1, §2
The TNF-α amount was measured using a human TNF-alpha ELISA kit (Abeam, Cambridge, Mass.) on the supernate of the culture medium. 100 μL of the sample was added to 96-plate wells, then 50 μL of Biotinylated TNF alpha detection antibody was added and incubated at room temperature for 3 hours. 100 μL of HRP-streptavidin solution was added and incubated at room temperature for 30 minutes. 100 μL of Chromogen TMB substrate solution was added and incubated at room temperature of the light-shielding state for 20 minutes. Washing was performed between each step and incubated on a shaker. 50 μL of stop solution was added without washing. Absorbance was measured at 450 nm with a spectrophotometer (Biotek, PowerWave XS2, Winooski, Vt., USA).

[5] = test system: HMC-1 cells; experiment: IL-4 release in PMACI-treated HMC-1 cells (ELISA); details: for IL-4 release: mean ± S.E.
Method: as §1, §2, §3

[6] = test system: HMC-1 cells; experiment: Leukotrien B4 (LTB4) release in PMACI-treated HMC-1 cells (ELISA); details: for Leukotrien B4 release: mean ± S.E.
Method: as §1, §2
The leukotriene B4 amount was measured using the LTB4 (Leukotriene B4) ELISA kit (MybioSource, San Diego, Calif., USA) on the supernate of the culture medium. 50 μL of the sample was added to 96-plate wells, then 50 μL of Biotinylated Detection Ab working solution was added and incubated at 37° C. for 45 minutes. 100 μL of HRP Conjugate working solution was added and incubated at 37° C. for 30 minutes. 90 μL of Substrate reagent was added and incubated at 37° C. for 15 minutes. Washing was performed between each step. 50 μL of stop solution was added without washing. Absorbance was measured at 450 nm with a spectrophotometer (Biotek, PowerWave XS2, Winooski, Vt., USA).

[7] = Tβ4 1 μg/ml, PMACI-treated HMC-1 cells
[8] = Tβ4 1.5 μg/ml, PMACI-treated HMC-1 cells
[9] = Tβ4 3 μg/ml, PMACI-treated HMC-1 cells
[10] = Tβ4 6 μg/ml, PMACI-treated HMC-1 cells

“thymosin beta 4 (SDKPDMAEIEKFDKSKLKKTETQEKNPLPSKETIEQEKQAGES; Thymosin beta-4; UniProt P62328 2-44, looked up) [Tβ4, human protein; polypeptide composed of 43 amino acids having 4.9 kDa]” was tested, and the “Tβ4 concentration with inhibitory effect on histamine release” value ([1]; PMACI-treated HMC-1 cells) was “above 1 μg/ml”, the “Tβ4 concentration with the best effect of suppressing the increase of HIS release” value ([1]; PMACI-treated HMC-1 cells) was 3 µg/mL and the Histamine release [1, 7] was 25.96 ± 0.78 pg/mL. The Histamine release [1, 8] was 23.91 ± 0.36 pg/mL, the Histamine release [1, 9] was 22.00 ± 1.10 pg/mL and the Histamine release [1, 10] was 23.46 ± 0.55 pg/mL. For the same substance, the “Amount of HIS released compared to PMACI alone” value ([1]; Tβ4 1, 1.5, 3, 6 μg/ml (1-6 μg/ml), p<0.01) was “significant inhibitory effect; also recorded: significantly decreased”, the “Amount of HIS released compared to PMACI alone” value ([1]; Tβ4 less than 1 μg/ml) was “no significant difference” and the “Tβ4 concentration most effective in inhibiting the increase of PGE2 release” value ([2]; PMACI-treated HMC-1 cells) was 3 µg/mL. For the same substance, the “Tβ4 concentration with inhibitory effect on PGE2 release” value ([2]; PMACI-treated HMC-1 cells) was “above 3 μg/ml”, the PGE2 release [2, 8] was 97.43 ± 2.56 pg/mL and the PGE2 release [2, 9] was 94.96 ± 0.87 pg/mL. For the same substance, the “Amount of PGE2 released compared to PMACI alone” value ([2]; Tβ4 3 μg/ml, p<0.05) was “significant inhibitory effect”, the PGE2 release [2, 10] was 106.00 ± 3.13 pg/mL and the “Release level of PGE2 compared with PMACI treatment alone” value ([2]; Tβ4 1-6 μg/ml) was “significantly decreased”. The IL-13 release ([3]; Tβ4 1 μg/ml) was 30.07 ± 2.33 pg/mL, the IL-13 release ([3]; Tβ4 1.5 μg/ml) was 28.52 ± 2.83 pg/mL and the IL-13 release ([3]; Tβ4 3 μg/ml) was 28.22 ± 2.33 pg/mL. For the same substance, the IL-13 release ([3]; Tβ4 6 μg/ml) was 26.98 ± 2.45 pg/mL, the “Amount of IL-13 released compared to PMACI alone” value ([3]; Tβ4 1, 1.5, 3, and 6 μg/ml (1-6 μg/ml), p<0.05) was “significant inhibitory effect; also recorded: significantly decreased” and the TNF-α release ([4]; Tβ4 1 μg/ml) was 513.77 ± 17.85 pg/mL. For the same substance, the TNF-α release ([4]; Tβ4 1.5 μg/ml) was 380.23 ± 7.97 pg/mL, the “Reduction of TNF-α release compared to PMACI alone” value ([4]; Tβ4 3 μg/ml) was “reduced 37.4%” and the TNF-α release ([4]; Tβ4 3 μg/ml) was 379.42 ± 8.03 pg/mL. For the same substance, the “Reduction of TNF-α release compared to PMACI alone” value ([4]; Tβ4 6 μg/ml) was 37.1%, the TNF-α release ([4]; Tβ4 6 μg/ml) was 381.46 ± 12.75 pg/mL and the “Amount of TNF-α released compared to PMACI alone” value ([4]; Tβ4 1, 1.5, 3, and 6 μg/ml (1-6 μg/ml), p<0.01) was “significant inhibitory effect; also recorded: significantly decreased”. For the same substance, the “Tβ4 concentration with inhibitory effect on IL-4 release” value ([5]; PMACI-treated HMC-1 cells) was “above 1.5 μg/ml”, the IL-4 release [5, 7] was 88.27 ± 10.18 pg/mL and the IL-4 release [5, 8] was 79.77 ± 4.27 pg/mL. For the same substance, the IL-4 release [5, 9] was 65.43 ± 7.20 pg/mL, the IL-4 release [5, 10] was 64.01 ± 3.02 pg/mL and the “Release level of IL-4 compared with PMACI treatment alone” value ([5]; Tβ4 1-6 μg/ml) was “significantly decreased”. The “Amount of IL-4 released compared to PMACI alone” value ([5]; Tβ4 1.5, 3, and 6 μg/ml, p<0.05) was “significant inhibitory effect”, the “Tβ4 concentration most effective in inhibiting the increase of LTB4 release” value ([6]; PMACI-treated HMC-1 cells) was 1.5 µg/mL and 3 µg/mL and the “Tβ4 concentration with inhibitory effect on LTB4 release” value ([6]; PMACI-treated HMC-1 cells) was “above 1.5 μg/ml”. The “Leukotrien B4 release” value [6, 8] was 29.94 ± 1.97 pg/mL, the “Leukotrien B4 release” value [6, 9] was 28.91 ± 2.10 pg/mL and the “Leukotrien B4 release” value [6, 10] was 32.06 ± 2.44 pg/mL. The “Release level of LTB4 compared with PMACI treatment alone” value ([6]; Tβ4 1-6 μg/ml) was “significantly decreased” and the “Amount of LTB4 released compared to PMACI alone” value ([6]; Tβ4 1.5 and 3 μg/ml, p<0.05) was “significant inhibitory effect”.

Source: patent publication US20230025377A1, “COMPOSITIONS AND METHODS FOR TREATING OR PREVENTING PRURITUS” (HLB THERAPEUTICS CO., LTD., priority 2020, published 2023)
